# Source: patent publication US20150315218A1, “SALTS OF PRODRUGS OF PIPERAZINE AND SUBSTITUTED PIPERIDINE ANTIVIRAL AGENTS” (Bristol-Myers Squibb Company, priority 2004, published 2015)
# Like-named read-outs stand apart in the source and are kept apart here.
# Tests used:
# [1] = Single-dose toxicokinetic and tolerability study of prodrugs in dogs; type: in vivo, dog; conditions: for concentration at 24 h / AUC(0-inf) / half-life: dog, plasma; for concentration at 24 h: oral, read-out: C24h; for AUC(0-inf) / half-life: po; for half-life: read-out: T1/2 (converted)
# Procedure: A multi-phase study was conducted to evaluate the tolerability of the prodrug, Iab (monolysine salt) at dosages of 24, 90, or 240 mg/kg (free acid, molar equivalent to 19, 71, or 190 mg/kg of parent IVa, respectively) and the toxicokinetics of lab and IVa (4). Iab was administered to two female dogs/group once daily either as an aqueous solution (24 or 90 mg/kg) or dry-filled capsules (24, 90 [once and twice daily] or 240 mg/kg). The endpoints were: clinical signs, body weight, food consumption, and plasma toxicokinetics of lab and IVa. In all cases, a 1-week washout period was used between doses for all phases of the study. […]
# On day 1, Icb was administered to one dog/sex/group once daily in dry-filled capsules at the above dosages. A 1-week washout period was used between doses in the study. On day 8, Icb was administered to one dog/sex/group once daily as an aqueous solution at 25 mg/kg or twice daily in dry-filled capsules at 46 or 125 mg/kg BID.
# [2] = IV and PO pharmacokinetic studies of prodrug salts (Iab, Ibb, Icb) in the dog, with historical parent data; type: in vivo, beagle dogs; conditions: plasma; for half-life: read-out: T1/2 (converted); for concentration at 24 h: read-out: C-24 hr; for AUC: read-out: AUCtot; for Cmax: read-out: Cmax
# Procedure: The IV and PO studies of Iab were conducted in a crossover fashion in three male beagle dogs (11±1.1 kg, Marshall Farms USA Inc., North Rose, N.Y.). There was a two-week washout period between the IV and PO studies.
# (§1) In the IV study, Iab was infused via the cephalic vein at 1.2 mg/kg (free acid, or 0.95 mg/kg of IVa equivalent) over 5 min at a constant rate of 0.1 mL/kg/min. The concentration of the dosing solution was 2.4 mg/mL, and the dosing volume was 0.5 mL/kg. Serial blood samples were collected from the femoral artery before dosing and at 5, 10, 15, 30, 45 min, 1, 2, 4, 6, 8 and 24 hr after dosing.
# In the PO study, the dogs were fasted overnight before dosing. Iab was administered by oral gavage at 6.6 mg/kg (free acid, or 5.2 mg/kg of IVa equivalent). The concentration of the dosing solution was 13.2 mg/mL, and the dosing volume was 0.5 mL/kg. Serial blood samples were collected before dosing and at 15, 30, 45 min, 1, 2, 4, 6, 8 and 24 hr after dosing.
# The IV and PO studies of Ibb were conducted in male beagle dogs (10±0.78 kg, Marshall Farms USA Inc., North Rose, N.Y.). Three dogs were used in each study. Of the three dogs, two same dogs were used for both IV and PO studies. There was a two-week washout period between the IV and PO studies.
# The concentration of the dosing solution was 2.6 mg/mL, and the dosing volume was 0.5 mL/kg. Serial blood samples were collected from the femoral artery before dosing and at 5, 10, 15, 30, 45 min, 1, 2, 4, 6, 8 and 24 hr after dosing.
# In the PO study, the dogs were fasted overnight before dosing. […] The concentration of the dosing solution was 7.0 mg/mL, and the dosing volume was 1 mL/kg. Serial blood samples were collected before dosing and at 15, 30, 45 min, 1, 2, 4, 6, 8 and 24 hr after dosing.
# The IV and PO studies of Icb were conducted in a crossover fashion in three male beagle dogs (12±2.8 kg, Marshall Farms USA Inc., North Rose, N.Y.). There was a two-week washout period between the IV and PO studies.
# as §1, with “Icb” for “Iab”, “1.3” for “1.2”, “1.0” for “0.95”, “IVe” for “IVa”, “2.6” for “2.4”
# In the PO study, the dogs were fasted overnight before dosing. […] The concentration of the dosing solution was 12 mg/mL, and the dosing volume was 0.5 mL/kg. Serial blood samples were collected before dosing and at 15, 30, 45 min, 1, 2, 4, 6, 8 and 24 hr after dosing.
# [3] = Single-dose oral toxicokinetic study of prodrugs in rats; type: in vivo, rat; conditions: for concentration at 24 h / Cmax / AUC / half-life: male, Sprague Dawley, rat, plasma; for concentration at 24 h: oral, read-out: C24h; for Cmax / AUC / half-life: po; for AUC: read-out: AUC from zero to ∞; for half-life: read-out: T1/2 (converted)
# Procedure: A 1-day oral toxicokinetic study in rats was conducted using the prodrug Iab (monolysine salt). Iab was administered at dosages of 16, 72, and 267 mg/kg (free acid) by oral gavage to three male rats/group using water as the vehicle (solution formulation). The dosages of prodrug free acid correspond to IVa (parent) molar equivalent dosages of 13, 57, and 211 mg/kg, respectively. The endpoint evaluated was plasma toxicokinetics of Iab and IVa in the individual rats.
# A 1-day oral toxicokinetic study in rats was conducted by using the prodrug Ibb (monolysine salt). Ibb was administered at dosages of 19, 64, and 236 mg/kg (free acid) by oral gavage to three male rats/group using water as the vehicle (solution formulation).
# A 1-day oral toxicokinetic study in rats was conducted using the prodrug Icb (disodium salt). Icb was administered at dosages of 5, 25, and 200 mg/kg (free acid) by oral gavage to three male rats/group using water as the vehicle (solution formulation).
# [4] = female, 25 mg/kg, dog 2201F, day 1, Ibb 25 mg/kg QD dry-filled capsules
# [5] = female, 25 mg/kg, dog 2201F, day 8, Ibb 25 mg/kg QD aqueous solution
# [6] = female, 92 mg/kg, dog 3201F, day 1, Ibb 92 mg/kg QD dry-filled capsules
# [7] = female, 250 mg/kg, dog 4201F, day 1, Ibb 250 mg/kg QD dry-filled capsules
# [8] = male, 25 mg/kg, dog 2101M, day 1, Ibb 25 mg/kg QD dry-filled capsules
# [9] = male, 25 mg/kg, dog 2101M, day 8, Ibb 25 mg/kg QD aqueous solution
# [10] = male, 92 mg/kg, dog 3101M, day 1, Ibb 92 mg/kg QD dry-filled capsules
# [11] = male, 250 mg/kg, dog 4101M, day 1, Ibb 250 mg/kg QD dry-filled capsules
structure (smiles),measurement,setting,value
O=C(C(=O)N1CCN(C(=O)c2ccccc2)CC1)c1c[nH]c2c(-n3ccnn3)ncc(F)c12 [IVb],time post-second dose at which mean Cmax of parent was achieved,"[1]; dogs, BID dosing of prodrug",1 to 2 h
same,time post-dose at which mean Cmax of parent was achieved,"[1]; dogs, once daily (QD) dosing of prodrug",1 to 4 h
same,concentration at 24 h,[1]; [4],688 nM
same,concentration at 24 h,[1]; [5],107 nM
same,concentration at 24 h,"[1]; female, 46 mg/kg, dog 3201F, day 8, Ibb 46 mg/kg BID dry-filled capsules",307 nM
same,concentration at 24 h,[1]; [6],202 nM
same,concentration at 24 h,"[1]; female, 125 mg/kg, dog 4201F, day 8, Ibb 125 mg/kg BID dry-filled capsules",1960 nM
same,concentration at 24 h,[1]; [7],704 nM
same,AUC(0-inf),[1]; [4],136 µM·h
same,half-life,[1]; [4],4.5 h
same,AUC(0-inf),[1]; [5],139 µM·h
same,AUC(0-inf),"[1]; female, 46 mg/kg, dog 3201F, day 8, Ibb 46 mg/kg BID dry-filled capsules, emesis",1050 µM·h
same,AUC(0-inf),"[1]; female, 92 mg/kg, dog 3201F, day 1, Ibb 92 mg/kg QD dry-filled capsules, emesis",329 µM·h
same,half-life,[1]; [6],2.3 h
same,AUC(0-inf),"[1]; female, 125 mg/kg, dog 4201F, day 8, Ibb 125 mg/kg BID dry-filled capsules, emesis",978 µM·h
same,AUC(0-inf),"[1]; female, 250 mg/kg, dog 4201F, day 1, Ibb 250 mg/kg QD dry-filled capsules, emesis",745 µM·h
same,half-life,[1]; [7],3.2 h
same,concentration at 24 h,[1]; [8],8 nM
same,concentration at 24 h,[1]; [9],547 nM
same,concentration at 24 h,"[1]; male, 46 mg/kg, dog 3101M, day 8, Ibb 46 mg/kg BID dry-filled capsules",10600 nM
same,concentration at 24 h,[1]; [10],1900 nM
same,concentration at 24 h,"[1]; male, 125 mg/kg, dog 4101M, day 8, Ibb 125 mg/kg BID dry-filled capsules",54200 nM
same,concentration at 24 h,[1]; [11],2610 nM
same,AUC(0-inf),[1]; [8],259 µM·h
same,half-life,[1]; [8],1.5 h
same,AUC(0-inf),[1]; [9],324 µM·h
same,half-life,[1]; [9],3.3 h
same,AUC(0-inf),"[1]; male, 46 mg/kg, dog 3101M, day 8, Ibb 46 mg/kg BID dry-filled capsules, emesis",478 µM·h
same,AUC(0-inf),"[1]; male, 92 mg/kg, dog 3101M, day 1, Ibb 92 mg/kg QD dry-filled capsules, emesis",111 µM·h
same,half-life,[1]; [10],3.6 h
same,AUC(0-inf),"[1]; male, 125 mg/kg, dog 4101M, day 8, Ibb 125 mg/kg BID dry-filled capsules, emesis",1390 µM·h
same,AUC(0-inf),"[1]; male, 250 mg/kg, dog 4101M, day 1, Ibb 250 mg/kg QD dry-filled capsules, emesis",334 µM·h
same,half-life,[1]; [11],4.1 h
same,bioavailability,"[2]; beagle, historical parent, PO 5 mg/kg, read-out: Bioavailability (%)",179%
same,Tmax,"[2]; beagle, historical parent, PO 5 mg/kg, read-out: Tmax (hr), PO",0.5 h
same,half-life,"[2]; male, beagle, iv, […]",2 ± 0.21 h
same,bioavailability,"[2]; male, beagle, oral prodrug, read-out: Bioavailability (%) of parent from prodrug",310%
same,bioavailability,"[2]; male, beagle, oral, 7 mg/kg, read-out: Bioavailability",310%
same,concentration at 24 h,"[2]; male, beagle, oral, 7 mg/kg",37 ± 26 nM
same,Tmax,"[2]; male, beagle, parent after oral prodrug (~5 mg/kg parent equivalent), read-out: Tmax (hr), PO",0.4 h
same,AUC,"[2]; male, beagle, po, 7 mg/kg",66 ± 17 µM·h
same,Cmax,"[2]; male, beagle, po, 7 mg/kg",20000 ± 2400 nM
same,half-life,"[2]; male, beagle, po, 7 mg/kg",2.6 ± 0.21 h
same,Tmax,"[2]; male, beagle, po, 7 mg/kg, read-out: Tmax",0.4 ± 0.13 h
same,AUC,"[2]; iv, 1 mg/kg",3.8 µM·h
same,clearance,"[2]; iv, 1 mg/kg, read-out: CLtot",9.8 mL/min/kg
same,MRT,"[2]; iv, 1 mg/kg, read-out: MRT",1.8 h
same,half-life,"[2]; iv, 1 mg/kg",1.6 h
same,Vd,"[2]; iv, 1 mg/kg, read-out: Vdss",1.1 L/kg
same,concentration at 24 h,"[2]; oral, 5 mg/kg",34 nM
same,AUC,"[2]; po, 5 mg/kg",30 ± 11 µM·h
same,bioavailability,"[2]; po, 5 mg/kg, read-out: Bioavailability",179 ± 56%
same,Cmax,"[2]; po, 5 mg/kg",7700 ± 710 nM
same,half-life,"[2]; po, 5 mg/kg",2.7 ± 0.4 h
same,Tmax,"[2]; po, 5 mg/kg, read-out: Tmax",0.5 ± 0.25 h
same,concentration at 24 h,[3]; 19 mg/kg (free acid),48 nM
same,concentration at 24 h,[3]; 64 mg/kg (free acid),290 nM
same,concentration at 24 h,[3]; 236 mg/kg (free acid),29000 nM
same,Cmax,[3]; 19 mg/kg,58000 nM
same,AUC,[3]; 19 mg/kg,283 µM·h
same,half-life,[3]; 19 mg/kg,2.1 h
same,Cmax,[3]; 64 mg/kg,135000 nM
same,AUC,[3]; 64 mg/kg,997 µM·h
same,half-life,[3]; 64 mg/kg,2.1 h
same,Cmax,[3]; 236 mg/kg,290000 nM
same,AUC,[3]; 236 mg/kg,3700 µM·h
same,half-life,[3]; 236 mg/kg,5.8 h
same,time post-dose at which mean maximum plasma concentration (Cmax) was achieved,"[3]; rats, single oral dose of prodrug",1 to 3 h
